Measurements reported in US12421210B2, “Fused bicyclic heterocycles as therapeutic agents” (NEW YORK UNIVERSITY, priority 2018, dated 2025).

The compounds below were run against human NAMPT enzyme (His-hNAMPT) (Homo sapiens (Human), UniProt P43490) (assay: NAMPT enzymatic inhibition assay (fluorescence, NADH product)). Conditions: [BPS]; read-out: NAMPT IC50 (μM) [BPS].
Type: biochemical

Chain of human NAMPT enzyme (His-hNAMPT) (P43490 whole entry): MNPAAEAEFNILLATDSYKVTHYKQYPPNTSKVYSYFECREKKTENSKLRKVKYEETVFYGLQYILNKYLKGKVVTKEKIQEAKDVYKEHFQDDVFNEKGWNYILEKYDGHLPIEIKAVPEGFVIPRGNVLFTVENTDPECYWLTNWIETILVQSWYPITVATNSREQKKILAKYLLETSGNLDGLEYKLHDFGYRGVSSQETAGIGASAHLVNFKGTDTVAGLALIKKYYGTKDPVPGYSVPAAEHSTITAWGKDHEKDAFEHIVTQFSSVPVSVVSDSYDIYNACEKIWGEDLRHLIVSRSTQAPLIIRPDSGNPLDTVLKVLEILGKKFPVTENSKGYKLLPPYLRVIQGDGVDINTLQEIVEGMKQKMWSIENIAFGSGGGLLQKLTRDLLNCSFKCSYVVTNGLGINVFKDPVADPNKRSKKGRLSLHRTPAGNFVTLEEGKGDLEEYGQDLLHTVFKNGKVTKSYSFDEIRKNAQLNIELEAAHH

SMILES | IC50 [µM]
O=C(/C=C/c1cccnc1)NCC[C@@H]1[C@H]2CN(c3cccc(F)c3)C[C@@H]12 [Example 128, (E)-N-(2-((1R,5S,6s)-3-(3-fluorophenyl)-3-azabicyclo[3.1.0]hexan-6-yl)ethyl)-3-(pyridin-3-yl)acrylamide] | 0.01 to 0.49
COc1cccc(N2C[C@@H]3[C@@H](CCNC(=O)/C=C/c4cccnc4)[C@@H]3C2)c1 [Example 129, (E)-N-(2-((1R,5S,6s)-3-(3-methoxyphenyl)-3-azabicyclo[3.1.0]hexan-6-yl)ethyl)-3-(pyridin-3-yl)acrylamide] | 0.01 to 0.49
Nc1ccc(/C=C/C(=O)NCC[C@@H]2[C@H]3CN(C(=O)Oc4ccccc4)C[C@@H]23)cn1 [Example 40, (1R,5S,6s)-phenyl 6-(2-((E)-3-(6-aminopyridin-3-yl)acrylamido)ethyl)-3-azabicyclo[3.1.0]hexane-3-carboxylate] | 0.01 to 0.49
Nc1ccc(/C=C/C(=O)NCC[C@@H]2[C@H]3CN(S(=O)(=O)c4ccc(F)cc4)C[C@@H]23)cn1 [Example 46, (E)-3-(6-aminopyridin-3-yl)-N-(2-((1R,5S,6s)-3-((4-fluorophenyl)sulfonyl)-3-azabicyclo[3.1.0]hexan-6-yl)ethyl)acrylamide] | 0.01 to 0.49
CC(C)(C)OC(=O)N1C[C@@H]2[C@H](C1)[C@H]2C(F)CNC(=O)/C=C/c1cccnc1 (stereo partly drawn) [Example 255, (1R,5S,6r)-tert-butyl 6-(1-fluoro-2-((E)-3-(pyridin-3-yl)acrylamido)ethyl)-3-azabicyclo[3.1.0]hexane-3-carboxylate] | 0.01 to 0.49
O=C(NCC[C@@H]1[C@H]2CN(C(=O)c3ccc(F)cc3)C[C@@H]12)c1ccc2nccn2c1 [Example 102, N-(2-((1R,5S,6s)-3-(4-fluorobenzoyl)-3-azabicyclo[3.1.0]hexan-6-yl)ethyl)imidazo[1,2-a]pyridine-6-carboxamide] | 0.01 to 0.49
CC(C)(C)OC(=O)N1C[C@@H]2[C@@H](CNC(=O)c3cc4ccncc4o3)[C@@H]2C1 [Example 235, (1R,5S,6s)-tert-butyl 6-((furo[2,3-c]pyridine-2-carboxamido)methyl)-3-azabicyclo[3.1.0]hexane-3-carboxylate] | 1 to 29
O=C(O)c1cccc(C(=O)N2C[C@@H]3[C@@H](CCNC(=O)c4cc5ccncc5o4)[C@@H]3C2)c1 [Example 180, 3-((1R,5S,6s)-6-(2-(furo[2,3-c]pyridine-2-carboxamido)ethyl)-3-azabicyclo[3.1.0]hexane-3-carbonyl)benzoic acid] | 0.5 to 0.99
CC(C)(C)OC(=O)N1C[C@H]2C[C@H](CNC(=O)N3Cc4ccncc4C3)C[C@H]2C1 [Example 273, (3aR,5s,6aS)-tert-butyl 5-((2,3-dihydro-1H-pyrrolo[3,4-c]pyridine-2-carboxamido)methyl)hexahydrocyclopenta[c]pyrrole-2(1H)-carboxylate] | 1 to 29
Nc1ccc(/C=C/C(=O)NCC[C@@H]2[C@H]3CN(Cc4ccccc4)C(=O)[C@@H]23)cn1 (racemic) [Example 258, (E)-3-(6-aminopyridin-3-yl)-N-(2-((1R,5S,6S)-3-benzyl-2-oxo-3-azabicyclo[3.1.0]hexan-6-yl)ethyl)acrylamide and (E)-3-(6-aminopyridin-3-yl)-N-(2-((1S,5R,6R)-3-benzyl-2-oxo-3-azabicyclo[3.1.0]hexan-6-yl)ethyl)acrylamide] | 0.01 to 0.49
Nc1ccc(/C=C/C(=O)NCC[C@@H]2[C@H]3CN(C(=O)c4ccc(F)cc4)C[C@@H]23)cn1 [Example 86, (E)-3-(6-aminopyridin-3-yl)-N-(2-((1R,5S,6s)-3-(4-fluorobenzoyl)-3-azabicyclo[3.1.0]hexan-6-yl)ethyl)acrylamide] | 0.01 to 0.49
CC(C)(C)OC(=O)N1C[C@@H]2[C@@H](CCNC(=O)/C=C/c3ccc(N)nc3)[C@@H]2C1 [Example 4, (1R,5S,6s)-tert-butyl 6-(2-((E)-3-(6-aminopyridin-3-yl)acrylamido)ethyl)-3-azabicyclo[3.1.0]hexane-3-carboxylate] | 0.01 to 0.49
O=C(NCC[C@@H]1[C@H]2CN(c3nc4ccccc4s3)C[C@@H]12)c1cc2ccncc2o1 [Example 120, N-(2-((1R,5S,6s)-3-(benzo[d]thiazol-2-yl)-3-azabicyclo[3.1.0]hexan-6-yl)ethyl)furo[2,3-c]pyridine-2-carboxamide] | 0.01 to 0.49
CC1(OC(=O)N2C[C@@H]3[C@@H](CCNC(=O)/C=C/c4ccncc4)[C@@H]3C2)COC1 [Example 35, (1R,5S,6s)-3-methyloxetan-3-yl 6-(2-((E)-3-(pyridin-4-yl)acrylamido)ethyl)-3-azabicyclo[3.1.0]hexane-3-carboxylate] | 1 to 29
Nc1ccc(/C=C/C(=O)NCC[C@@H]2[C@H]3CN(S(=O)(=O)C4CCOCC4)C[C@@H]23)cn1 [Example 47, (E)-3-(6-aminopyridin-3-yl)-N-(2-((1R,5S,6s)-3-((tetrahydro-2H-pyran-4-yl)sulfonyl)-3-azabicyclo[3.1.0]hexan-6-yl)ethyl)acrylamide] | 0.01 to 0.49
CC1(OC(=O)N2C[C@@H]3[C@@H](CCNC(=O)C4C[C@@H]4c4cccnc4)[C@@H]3C2)COC1 (mixture of isomers) [Example 53, (1R,5S,6s)-3-methyloxetan-3-yl 6-(2-((1S,2S)-2-(pyridin-3-yl)cyclopropanecarboxamido)ethyl)-3-azabicyclo[3.1.0]hexane-3-carboxylate and (1R,5S,6s)-3-methyloxetan-3-yl 6-(2-((1R,2R)-2-(pyridin-3-yl)cyclopropanecarboxamido)ethyl)-3-azabicyclo[3.1.0]hexane-3-carboxylate] | 0.01 to 0.49
CC1(OC(=O)N2C[C@@H]3[C@@H](CCN/C(=N\C#N)Nc4ccncc4)[C@@H]3C2)COC1 [Example 229, (1R,5S,6s)-3-methyloxetan-3-yl 6-(2-((E)-2-cyano-3-(pyridin-4-yl)guanidino)ethyl)-3-azabicyclo[3.1.0]hexane-3-carboxylate] | 0.01 to 0.49
Nc1ccc(/C=C/C(=O)NCC[C@@H]2[C@H]3CN(C(=O)OC4Cc5ccccc5C4)C[C@@H]23)cn1 [Example 51, (1R,5S,6s)-2,3-dihydro-1H-inden-2-yl 6-(2-((E)-3-(6-aminopyridin-3-yl)acrylamido)ethyl)-3-azabicyclo[3.1.0]hexane-3-carboxylate] | 0.01 to 0.49
O=C(NCC[C@@H]1[C@H]2CN(S(=O)(=O)C3CCOCC3)C[C@@H]12)c1cc2cnccc2[nH]1 [Example 84, N-(2-((1R,5S,6s)-3-((tetrahydro-2H-pyran-4-yl)sulfonyl)-3-azabicyclo[3.1.0]hexan-6-yl)ethyl)-1H-pyrrolo[3,2-c]pyridine-2-carboxamide] | 0.5 to 0.99
CC1(OC(=O)N2C[C@@H]3[C@@H](CCNC(=O)/C=C/c4cccnc4)[C@@H]3C2)COC1 [Example 21, (1R,5S,6s)-3-methyloxetan-3-yl 6-(2-((E)-3-(pyridin-3-yl)acrylamido)ethyl)-3-azabicyclo[3.1.0]hexane-3-carboxylate] | 0.01 to 0.49

Same assay, conditions: [HDB]; read-out: NAMPT IC50 (μM) [HDB]

SMILES | IC50 [µM]
O=C(/C=C/c1cccnc1)NCC[C@@H]1[C@H]2CN(c3ccccn3)C[C@@H]12 [Example 176, (E)-N-(2-((1R,5S,6s)-3-(pyridin-2-yl)-3-azabicyclo[3.1.0]hexan-6-yl)ethyl)-3-(pyridin-3-yl)acrylamide] | 0.01 to 0.49
COc1ncc(F)c(N2C[C@@H]3[C@@H](CCNC(=O)/C=C/c4cccnc4)[C@@H]3C2)n1 [Example 297, (E)-N-(2-((1R,5S,6s)-3-(5-fluoro-2-methoxypyrimidin-4-yl)-3-azabicyclo[3.1.0]hexan-6-yl)ethyl)-3-(pyridin-3-yl)acrylamide] | < 0.01
CC(c1ccccc1)N1C[C@@H]2[C@@H](CCNC(=O)/C=C/c3cccnc3)[C@@H]2C1 (stereo partly drawn) [Example 249, (E)-N-(2-((1R,5S,6s)-3-(1-phenylethyl)-3-azabicyclo[3.1.0]hexan-6-yl)ethyl)-3-(pyridin-3-yl)acrylamide] | 0.01 to 0.49
NC(=O)c1cnc(N2C[C@@H]3[C@@H](CCNC(=O)/C=C/c4cccnc4)[C@@H]3C2)nc1 [Example 174, 2-((1R,5S,6s)-6-(2-((E)-3-(pyridin-3-yl)acrylamido)ethyl)-3-azabicyclo[3.1.0]hexan-3-yl)pyrimidine-5-carboxamide] | < 0.01
O=C(/C=C/c1cccnc1)NCC[C@@H]1[C@H]2CN(c3ncc(F)c(O)n3)C[C@@H]12 [Example 187, (E)-N-(2-((1R,5S,6s)-3-(5-fluoro-4-hydroxypyrimidin-2-yl)-3-azabicyclo[3.1.0]hexan-6-yl)ethyl)-3-(pyridin-3-yl)acrylamide] | 0.01 to 0.49
N#Cc1cccc(N2C[C@@H]3[C@@H](CCNC(=O)/C=C/c4cccnc4)[C@@H]3C2)c1 [Example 136, (E)-N-(2-((1R,5S,6s)-3-(3-cyanophenyl)-3-azabicyclo[3.1.0]hexan-6-yl)ethyl)-3-(pyridin-3-yl)acrylamide] | < 0.01
O=C(CCc1ccccn1)NCC[C@@H]1[C@H]2CN(c3nc(Cl)ncc3F)C[C@@H]12 [Example 218, N-(2-((1R,5S,6s)-3-(2-chloro-5-fluoropyrimidin-4-yl)-3-azabicyclo[3.1.0]hexan-6-yl)ethyl)-3-(pyridin-2-yl)propanamide] | 0.01 to 0.49
O=C(/C=C/c1cccnc1)NCC[C@@H]1[C@H]2CN(c3ccc4ccncc4c3)C[C@@H]12 [Example 141, (E)-N-(2-((1R,5S,6s)-3-(isoquinolin-7-yl)-3-azabicyclo[3.1.0]hexan-6-yl)ethyl)-3-(pyridin-3-yl)acrylamide] | < 0.01
CC(=O)Nc1cccc(N2C[C@@H]3[C@@H](CCNC(=O)/C=C/c4cccnc4)[C@@H]3C2)c1 [Example 184, (E)-N-(2-((1R,5S,6s)-3-(3-acetamidophenyl)-3-azabicyclo[3.1.0]hexan-6-yl)ethyl)-3-(pyridin-3-yl)acrylamide] | 0.01 to 0.49
O=C(/C=C/c1cccnc1)NCC[C@@H]1[C@H]2CN(Cc3ccc(F)cc3)C[C@@H]12 [Example 247, (E)-N-(2-((1R,5S,6s)-3-(4-fluorobenzyl)-3-azabicyclo[3.1.0]hexan-6-yl)ethyl)-3-(pyridin-3-yl)acrylamide] | 0.01 to 0.49
O=C(/C=C/c1cccnc1)NCC[C@@H]1[C@H]2CN(c3ccc(C(F)(F)F)cc3)C[C@@H]12 [Example 139, (E)-3-(pyridin-3-yl)-N-(2-((1R,5S,6s)-3-(4-(trifluoromethyl)phenyl)-3-azabicyclo[3.1.0]hexan-6-yl)ethyl)acrylamide] | 0.01 to 0.49
